Data: patent US20190365927A1, “COMPOSITION FOR PHOTODYNAMIC THERAPY USING GENE EXPRESSING FLUORESCENT PROTEIN AND PHOTOSENSITIZER, AND PHOTODYNAMIC THERAPY METHOD USING SAME” (priority 2017, published 2019)

Experiments:
GFP cells (GFP-H460) = assay: Experiment using rat cannulation, counting GFP-cancer cells in blood; type: in vivo; conditions: cells pretreated with 100 μM RB, injected IV into SD rats, 473 nm 80 mW for 5 minutes at cannulated tubing
Experimental: (1) GFP cells (GFP-H460) were seeded into two 100-mm dishes at a concentration of 1×10^7 cells/ml. On the next day, 100 μM of rose bengal (RB) was applied thereto (in the subsequent procedure, light exposure was avoided as much as possible). In 4 hours after RB treatment, the cells were harvested using trypsin, suspended in FBS pre-culture medium at 2×10^6 cells/300 μl, and placed in a 1.5 ml tube.
Six out of 10 8 weeks aged SD rats were injected in IV (tail) manner with the cell solution. The […] sections of the 5 SD rats were incised. The carotid artery and venous vein were discovered and cannulated using a 279 μm ID×609 μm OD×152 μm wall sized polyethylene tubing (BD, 427401) wet with heparin. Thus, blood flow was carried out through the tubing. Irradiation of 473 nm light with an intensity of 80 mW to the cannulated tubing site was performed for 5 minutes. The irradiated rats were weighed and incubated overnight in a constant-temperature constant-humid chamber. […]
1 ml of 0.1 μg/ml DAPI/PBST solution was added thereto. […] GFP-cancer cells were counted using a fluorescent microscope (Nikon, Diaphot 300), and the numbers of GFP-cancer cells according to the presence or absence of light irradiation were compared with each other. […]

[1] = test system: GFP cells and non-GFP cells; assay: Peristaltic pump experiment, Hoechst 33342 and PI double staining; type: cell-based; conditions: 100 μM RB, 4 hours, flow 1 ml/min, 473 nm at 80 mW, repeated passes
Experimental: (1) Non-GFP and GFP cells were seeded in a 100 mm dish at a density of 1×10^7 cells. The next day, 100 μM of rose bengal (RB, santacruz, sc-203757) was applied thereto (in the subsequent procedure, light exposure was avoided as much as possible). A 4 mm ID×6 mm OD×1 mm wall sized transparent tube (Tygon, E-3603) was connected to an EP-1 Econo Pump (Bio-rad, 731-9001) in the dark room. A laser device was prepared.
In four hours after the RB treatment, cells were harvested using trypsin, suspended in 20 ml of the culture medium, and placed in a 50 ml tube. Using a pump, the cell solution passed through the tubing at a flow rate of 1 ml/min and was irradiated with light of 473 nm at an intensity of 80 mW. This process was repeated 2, 4, 8, and 10 times. The resulting cells were seeded in a 1-ml 12-well plate. The next day, double staining was performed to compare the death amounts of non-GFP and GFP cells with each other.
0.5×10^7 of non-GFP cells and 0.5×10^7 of GFP cells were mixed with each other (total 1×10^7). […]
PDT-treated cells were seeded onto a 12-well plate (1 mL per well) while controlling the PDT-treated cells to have a confluence of 50% or larger. […] The number of dead cells (PI-stained cells)/total number of cells*100 per cell image was calculated. Then, the cell death percentage was measured by calculating the average value between the calculated values of three cell images.

With O=C1OC2(c3cc(I)c(O)c(I)c3Oc3c2cc(I)c(O)c3I)c2c(Cl)c(Cl)c(Cl)c(Cl)c21 [RB, rose bengal] the “GFP-cancer cells in blood with or without light irradiation” value (GFP cells (GFP-H460)) was “only GFP cells were specifically killed” and the “death of GFP versus non-GFP cells in mixed culture” value [1] was “only GFP cells were specifically killed”.
